Measurements as given in patent US9382218B2, “N-heteroaryl substituted aniline derivatives as HCV-antivirals” (priority 2013, dated 2016).

Legend:
Test in all cases: microbe, parasite or virus in culture
[1] = test system: HCVpp GT-1a (pseudotyped HCV particles, E1/E2 of GT1a H77 strain); assay type: cell-based, Hepatitis C virus GT1a H77 strain; details: Hepatitis C virus, 72 h, read-out: HCVpp GT-1a (EC50, M)
[2] = test system: HCVpp GT-1b (pseudotyped HCV particles, E1/E2 of GT1b Con1 strain); assay type: cell-based, Hepatitis C virus GT1b Con1 strain; details: Hepatitis C virus, 72 h, read-out: HCVpp GT-1b (EC50, M)
[3] = test system: VSVpp (pseudotyped VSV G particles); assay type: cell-based; details: Vesicular stomatitis virus, 72 h, read-out: VSVpp (EC50, M)

| Compound | EC50 [1] | EC50 [2] | EC50 [3] |
| --- | --- | --- | --- |
| Nc1cc(Nc2cc(Cl)cc(Cl)c2)[nH]n1 [Compound 1, N^5-(3,5-Dichloro-phenyl)-1H-pyrazole-3,5-diamine] | 3.99e-05 M | 6.4e-05 M | ≥ 0.0001 M |
| Nc1cc(Nc2cc(Cl)c(F)c(Cl)c2)[nH]n1 [Compound 2, N^5-(3,5-Dichloro-4-fluoro-phenyl)-1H-pyrazole-3,5-diamine] | – | 5.22e-05 M | 3.4e-05 M |
| Cc1nnc(Nc2cc(Cl)cc(Cl)c2)o1 [Compound 3, (3,5-Dichloro-phenyl)-(5-methyl-[1,3,4]oxadiazol-2-yl)-amine] | 3.93e-05 M | 3.58e-05 M | ≥ 0.0001 M |
| Nc1nc(Nc2cccc(C(F)(F)F)c2)no1 [Compound 4, N^3-(3-Trifluoromethyl-phenyl)-[1,2,4]oxadiazole-3,5-diamine] | 1.36e-06 M | 6.06e-06 M | > 0.0001 M |
| Nc1noc(Nc2cc(Cl)cc(Cl)c2)n1 [Compound 5, N^5-(3,5-Dichloro-phenyl)-[1,2,4]oxadiazole-3,5-diamine] | 8.63e-06 M | 9.22e-06 M | 9.8e-06 M |
| Nc1nc(Nc2cc(Cl)cc(Cl)c2)no1 [Compound 6, N^3-(3,5-Dichloro-phenyl)-[1,2,4]oxadiazole-3,5-diamine] | 3.55e-06 M | 1.03e-05 M | 8.6e-05 M |
| Nc1nc(Nc2cc(Cl)cc(C(F)(F)F)c2)no1 [Compound 8, N^3-(3-Chloro-5-trifluoromethyl-phenyl)-[1,2,4]oxadiazole-3,5-diamine] | – | 9.03e-06 M | ≥ 0.0001 M |
| CS(=O)(=O)Nc1cccc(-c2c(Cl)cc(Nc3nc(N)no3)cc2C(F)(F)F)c1 [Compound 9, N-[4′-(3-Amino-[1,2,4]oxadiazol-5-ylamino)-6′-chloro-2′-trifluoromethyl-biphenyl-3-yl]-methanesulfonamide] | – | 2.99e-06 M | 7.04e-06 M |
| CS(=O)(=O)Nc1cccc(-c2c(Cl)cc(Nc3noc(N)n3)cc2C(F)(F)F)c1 [Compound 10, N-[4′-(5-Amino-[1,2,4]oxadiazol-3-ylamino)-6′-chloro-2′-trifluoromethyl-biphenyl-3-yl]-methanesulfonamide] | – | 1.53e-06 M | 9.87e-06 M |
| Nc1cnc(Nc2cc(Cl)cc(Cl)c2)o1 [Compound 11, N^2-(3,5-Dichloro-phenyl)-oxazole-2,5-diamine] | 2.93e-05 M | – | ≥ 0.0001 M |
